Measurements from patent US20030092757A1, “Favorable modulation of health-related quality of life and health-related quality-adjusted time-to-progression of disease in patients with prostate cancer” (priority 2001, published 2003).

System: patients having hormone refractory prostate cancer (HRPCa)
Experiment: Health-related quality-adjusted time-to-progression (QATTP) of disease, Kaplan-Meier product limit analysis, randomized placebo-controlled study
Type: in vivo, human
Method: The health-related QATTP of disease model for this invention expresses progression-free time as an equally preferable amount of time spent in full health. This is achieved by using patient-reported health-related QoL, as measured for the duration of observation or progression-free interval, to weight progression-free time. […] Patients received treatment with 10 mg (N=89) or 2.5 mg (N=95) of atrasentan or placebo (N=104) until experiencing a clinical event indicative of disease progression such as palliative opiate treatment of new bone or visceral pain, palliative radiation treatment of new bone pain, or new tumor growth symptoms requiring intervention or treatment with chemotherapy. Patient-reported health-related QoL data were collected with the EORTC QLQ-30 and the FACT-G and FACT-P, both of which were administered at baseline, at six week intervals and at each patient's final visit. The results from the 10 mg and 2.5 mg treatment groups are reported relative to the placebo group. A patient's transformed domain score and total score from both the EORTC QLQ-30 and FACT were used to weight the time-to-progression outcome data. Transformed domain scores ranged between 0 and 1, so the reported health-related QATTP of disease outcome was never larger than the actual time-to-progression. Each patient's health-related QATTP of disease was computed as the sum of the health-related QoL weights multiplied by the duration for which that patient experienced that health-related QoL. If a patient experienced a clinical event between two health-related QoL assessments, the set of health-related QoL domain scores immediately prior to the event were carried forward to the time of the clinical event. The mean and median health-related QATTP of disease outcomes were then estimated using Kaplan-Meier product limit methodology (Journal of the American Statistical Association, vol. 53, 1958, pp 457-481). The area under a Kaplan-Meier survival curve conveys an estimated mean health-related QATTP of disease. This analysis was applied to both intent-to-treat and per protocol population data. All health-related QATTP of disease comparisons between atrasentan and placebo treatment groups were based on a log-rank test with statistical significance at an α of 0.05. Results of the Kaplan-Meier product limit survival method analysis are reported in TABLE 2 (Intent to Treat) and TABLE 3 (Per Protocol Population). Mean and median health-related QATTP of disease are shown by treatment group. Log-rank tests comparing the differences between treatment groups are also reported.

[1] = EORTC Appetite Loss, 2.5 mg, intent to treat
[2] = EORTC Appetite Loss, 2.5 mg, per protocol
[3] = EORTC Appetite Loss, 10 mg, intent to treat
[4] = EORTC Appetite Loss, 10 mg, per protocol
[5] = EORTC Cognitive Functioning, 2.5 mg, intent to treat
[6] = EORTC Cognitive Functioning, 2.5 mg, per protocol
[7] = EORTC Cognitive Functioning, 10 mg, intent to treat
[8] = EORTC Cognitive Functioning, 10 mg, per protocol
[9] = EORTC Constipation, 2.5 mg, intent to treat
[10] = EORTC Constipation, 2.5 mg, per protocol
[11] = EORTC Constipation, 10 mg, intent to treat
[12] = EORTC Constipation, 10 mg, per protocol
[13] = EORTC Diarrhea, 2.5 mg, intent to treat
[14] = EORTC Diarrhea, 2.5 mg, per protocol
[15] = EORTC Diarrhea, 10 mg, intent to treat
[16] = EORTC Diarrhea, 10 mg, per protocol
[17] = EORTC Dyspnea, 2.5 mg, intent to treat
[18] = EORTC Dyspnea, 2.5 mg, per protocol
[19] = EORTC Dyspnea, 10 mg, intent to treat
[20] = EORTC Dyspnea, 10 mg, per protocol
[21] = EORTC Emotional Functioning, 2.5 mg, intent to treat
[22] = EORTC Emotional Functioning, 2.5 mg, per protocol
[23] = EORTC Emotional Functioning, 10 mg, intent to treat
[24] = EORTC Emotional Functioning, 10 mg, per protocol
[25] = EORTC Fatigue, 2.5 mg, intent to treat
[26] = EORTC Fatigue, 2.5 mg, per protocol
[27] = EORTC Fatigue, 10 mg, intent to treat
[28] = EORTC Fatigue, 10 mg, per protocol
[29] = EORTC Global Score, 2.5 mg, intent to treat
[30] = EORTC Global Score, 2.5 mg, per protocol
[31] = EORTC Global Score, 10 mg, intent to treat
[32] = EORTC Global Score, 10 mg, per protocol
[33] = EORTC Nausea & Vomiting, 2.5 mg, intent to treat
[34] = EORTC Nausea & Vomiting, 2.5 mg, per protocol
[35] = EORTC Nausea & Vomiting, 10 mg, intent to treat
[36] = EORTC Nausea & Vomiting, 10 mg, per protocol
[37] = EORTC Pain, 2.5 mg, intent to treat
[38] = EORTC Pain, 2.5 mg, per protocol
[39] = EORTC Pain, 10 mg, intent to treat
[40] = EORTC Pain, 10 mg, per protocol
[41] = EORTC Physical Functioning, 2.5 mg, intent to treat

In the case of `CCCCN(CCCC)C(=O)CN1C[C@H](c2ccc3c(c2)OCO3)[C@@H](C(=O)O)[C@@H]1c1ccc(OC)cc1` [atrasentan, (2R,3R,4S)-2-(4-methoxyphenyl)-4-(1,3-benzodioxol-5-yl)-1-(((N,N-dibutylamino)carbonyl)methyl)pyrrolidine-3-carboxylic acid], the “log rank tests of mean health-related QATTP of disease” value (2.5 mg, all health-related QoL domains except dyspnea and functional well-being) is reported as “statistically significant”, the “mean health-related QATTP of disease” value (2.5 mg, data in TABLE 2 (so in the source)) is reported as “longer” and the “difference in health-related QATTP between the atrasentan treatment groups” value (10 mg vs 2.5 mg, any health-related QoL domain) is reported as “no statistical differences”. For the same compound, the “mean health-related QATTP's of disease” value (10 mg, data in TABLE 2 (so in the source), all health-related QoL domains except dyspnea, global score, emotional well-being, social well-being, p<0.05) was “significantly longer”, the “mean health-related QATTP of disease, trend” value (10 mg, dyspnea, global score, emotional well-being, social well-being domains, p<0.10) was “trend favored” and the “QATTP of Disease Mean” value [1] was 186 days. The “QATTP of Disease Median” value [1] was 151 days, the “QATTP of Disease Mean” value [2] was 196 days and the “QATTP of Disease Median” value [2] was 162 days. The “QATTP of Disease Mean” value [3] was 175 days, the “QATTP of Disease Median” value [3] was 146 days and the “QATTP of Disease Mean” value [4] was 179 days. The “QATTP of Disease Median” value [4] was 146 days, the “QATTP of Disease Mean” value [5] was 180 days and the “QATTP of Disease Median” value [5] was 151 days. For the same compound, the “QATTP of Disease Mean” value [6] was 190 days, the “QATTP of Disease Median” value [6] was 156 days and the “QATTP of Disease Mean” value [7] was 163 days. For the same compound, the “QATTP of Disease Median” value [7] was 138 days, the “QATTP of Disease Mean” value [8] was 159 days and the “QATTP of Disease Median” value [8] was 144 days. For the same compound, the “QATTP of Disease Mean” value [9] was 180 days, the “QATTP of Disease Median” value [9] was 142 days and the “QATTP of Disease Mean” value [10] was 190 days. The “QATTP of Disease Median” value [10] was 151 days, the “QATTP of Disease Mean” value [11] was 189 days and the “QATTP of Disease Median” value [11] was 132 days. For the same compound, the “QATTP of Disease Mean” value [12] was 198 days, the “QATTP of Disease Median” value [12] was 141 days and the “QATTP of Disease Mean” value [13] was 198 days. The “QATTP of Disease Median” value [13] was 178 days, the “QATTP of Disease Mean” value [14] was 209 days and the “QATTP of Disease Median” value [14] was 184 days. The “QATTP of Disease Mean” value [15] was 185 days, the “QATTP of Disease Median” value [15] was 176 days and the “QATTP of Disease Mean” value [16] was 188 days. The “QATTP of Disease Median” value [16] was 184 days, the “QATTP of Disease Mean” value [17] was 173 days and the “QATTP of Disease Median” value [17] was 141 days. The “QATTP of Disease Mean” value [18] was 180 days, the “QATTP of Disease Median” value [18] was 142 days and the “QATTP of Disease Mean” value [19] was 177 days. The “QATTP of Disease Median” value [19] was 123 days, the “QATTP of Disease Mean” value [20] was 182 days and the “QATTP of Disease Median” value [20] was 132 days. For the same compound, the “QATTP of Disease Mean” value [21] was 177 days, the “QATTP of Disease Median” value [21] was 133 days and the “QATTP of Disease Mean” value [22] was 186 days. For the same compound, the “QATTP of Disease Median” value [22] was 143 days, the “QATTP of Disease Mean” value [23] was 167 days and the “QATTP of Disease Median” value [23] was 125 days. For the same compound, the “QATTP of Disease Mean” value [24] was 169 days, the “QATTP of Disease Median” value [24] was 134 days and the “QATTP of Disease Mean” value [25] was 165 days. For the same compound, the “QATTP of Disease Median” value [25] was 109 days, the “QATTP of Disease Mean” value [26] was 174 days and the “QATTP of Disease Median” value [26] was 127 days. The “QATTP of Disease Mean” value [27] was 153 days, the “QATTP of Disease Median” value [27] was 104 days and the “QATTP of Disease Mean” value [28] was 158 days. For the same compound, the “QATTP of Disease Median” value [28] was 111 days, the “QATTP of Disease Mean” value [29] was 159 days and the “QATTP of Disease Median” value [29] was 104 days. The “QATTP of Disease Mean” value [30] was 167 days, the “QATTP of Disease Median” value [30] was 124 days and the “QATTP of Disease Mean” value [31] was 141 days. For the same compound, the “QATTP of Disease Median” value [31] was 103 days, the “QATTP of Disease Mean” value [32] was 145 days and the “QATTP of Disease Median” value [32] was 106 days. For the same compound, the “QATTP of Disease Mean” value [33] was 195 days, the “QATTP of Disease Median” value [33] was 162 days and the “QATTP of Disease Mean” value [34] was 206 days. For the same compound, the “QATTP of Disease Median” value [34] was 178 days, the “QATTP of Disease Mean” value [35] was 201 days and the “QATTP of Disease Median” value [35] was 156 days. The “QATTP of Disease Mean” value [36] was 207 days, the “QATTP of Disease Median” value [36] was 168 days and the “QATTP of Disease Mean” value [37] was 179 days. For the same compound, the “QATTP of Disease Median” value [37] was 133 days, the “QATTP of Disease Mean” value [38] was 188 days and the “QATTP of Disease Median” value [38] was 142 days. For the same compound, the “QATTP of Disease Mean” value [39] was 172 days, the “QATTP of Disease Median” value [39] was 127 days and the “QATTP of Disease Mean” value [40] was 178 days. For the same compound, the “QATTP of Disease Median” value [40] was 137 days, the “QATTP of Disease Mean” value [41] was 172 days and the “QATTP of Disease Median” value [41] was 118 days. The “QATTP of Disease Mean” value (EORTC Physical Functioning, 2.5 mg, per protocol) was 181 days.
